Counter-ions that a name gives are not always drawn.

For this assay, the target named is T1, AR in VCaP cells (Homo sapiens, UniProt P10275).
T1 construct: endogenous in cells; host or cells: VCaP cells
T1 sequence (P10275 1-920): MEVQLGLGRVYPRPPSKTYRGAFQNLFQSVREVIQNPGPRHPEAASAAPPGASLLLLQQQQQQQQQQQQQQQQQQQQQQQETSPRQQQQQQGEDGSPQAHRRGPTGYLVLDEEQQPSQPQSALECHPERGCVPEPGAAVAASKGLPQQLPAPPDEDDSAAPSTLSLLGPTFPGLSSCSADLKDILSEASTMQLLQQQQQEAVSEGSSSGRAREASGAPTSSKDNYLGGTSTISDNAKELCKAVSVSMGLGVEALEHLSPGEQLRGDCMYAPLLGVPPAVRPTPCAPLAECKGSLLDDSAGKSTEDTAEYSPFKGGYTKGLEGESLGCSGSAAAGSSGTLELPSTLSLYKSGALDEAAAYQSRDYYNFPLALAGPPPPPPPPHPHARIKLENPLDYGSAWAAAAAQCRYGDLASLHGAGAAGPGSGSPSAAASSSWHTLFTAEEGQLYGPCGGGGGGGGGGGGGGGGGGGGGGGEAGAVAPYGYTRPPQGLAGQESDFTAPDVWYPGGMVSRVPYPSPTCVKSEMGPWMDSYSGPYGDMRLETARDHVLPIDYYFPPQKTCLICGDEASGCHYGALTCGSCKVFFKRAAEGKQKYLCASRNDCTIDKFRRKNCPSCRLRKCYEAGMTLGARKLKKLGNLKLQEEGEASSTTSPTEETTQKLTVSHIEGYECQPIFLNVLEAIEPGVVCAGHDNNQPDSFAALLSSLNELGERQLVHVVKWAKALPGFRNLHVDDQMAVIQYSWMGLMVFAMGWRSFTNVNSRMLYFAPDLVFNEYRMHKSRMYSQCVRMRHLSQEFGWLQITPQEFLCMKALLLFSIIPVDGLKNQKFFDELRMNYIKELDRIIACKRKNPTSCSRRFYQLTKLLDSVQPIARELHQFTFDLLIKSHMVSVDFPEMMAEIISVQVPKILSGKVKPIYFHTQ
As to the kind of experiment: VCAP AR Degradation Assay (AR ELISA, 24 h). Type of assay: cell-based. Particulars: for DC50: concentration giving 50% AR degradation vs DMSO control; for remaining activity at up to 5 µM: lowest measured AR level normalized to DMSO control, top concentration 5 μM, read-out: Y. How it is done:
VCAP AR Degradation Assay. Test compounds were pre-dispensed into a Corning CellBind 96-well clear bottom plate (Cat #3300) using an acoustic dispenser to make a 10-point concentration series at 1:3 dilution for each compound. The final top concentration of each compound was 5 μM. DMSO at a final concentration of 0.1% was used as a control. VCaP cells cultured in DMEM with 8% fetal bovine serum (FBS) were seeded at 50K cells per well in a 200 μL volume into the compound plate and incubated at 37° C. in a CO2 incubator for 24 h. The medium was carefully removed from the cells and the plate was placed on ice. One hundred μL of ice-cold 1× cell lysis buffer from Cell Signaling Technologies (Cat #9803) was added to each well of the cells and the plate was incubated at 4° C. on a shaker for 1 h. Fifteen μL of cell lysate was used for AR ELISA detection using a PathScan Total Sandwich AR ELISA kit (Cell Signaling Technology, Cat #12580). AR levels in compound-treated wells were normalized to that of DMSO control and expressed as percent of control (PoC) (y). A Four Parameter Logistic Model (Sigmoidal Dose-Response Model) was used to determine the compound's DC50, and EC50, using the following equation: […]
The lowest measured AR level normalized to DMSO control in response to compound treatment, termed Y value, was used to characterize the compound-mediated AR degradation efficiency.
Background: An ELISA detects its analyte on a solid surface through an enzyme-linked reagent.

In general, DC50 refers to the concentration at which degradation of the target reaches its halfway point. Higher therefore signals a less potent degrader. Turning to `C[C@@H]1CN(CCO[C@H]2CC[C@H](N3C(=S)N(c4cnc(C#N)c(Cl)c4)C(=O)C3(C)C)CC2)C[C@H](C)N1CC(=O)Nc1ccc(C2CCC(=O)NC2=O)nc1` (stereo partly drawn) [Cmpd 6, 2-((2R,6S)-4-(2-((trans-4-(3-(5-Chloro-6-cyanopyridin-3-yl)-5,5-dimethyl-4-oxo-2-thioxoimidazolidin-1-yl)cyclohexyl)oxy)ethyl)-2,6-dimethylpiperazin-1-yl)-N-(6-(2,6-dioxopiperidin-3-yl)pyridin-3-yl)acetamide hydrochloride], the 50% degradation concentration (DC50) is at most 5 nM and the remaining activity at up to 5 µM was 20 to 30%.

With `C[C@@H]1C[C@H](OCC[C@H]2CC[C@H](N3C(=S)N(c4cnc(C#N)c(C(F)(F)F)c4)C(=O)C3(C)C)CC2)C[C@H](C)N1CC(=O)Nc1ccc(C2CCC(=O)NC2=O)nc1` (stereo partly drawn) [Cmpd 28, 2-((2R,4r,6S)-4-(2-((trans)-4-(3-(6-Cyano-5-(trifluoromethyl)pyridin-3-yl)-5,5-dimethyl-4-oxo-2-thioxoimidazolidin-1-yl)cyclohexyl)ethoxy)-2,6-dimethylpiperidin-1-yl)-N-(6-(2,6-dioxopiperidin-3-yl)pyridin-3-yl)acetamide], the DC50 was at most 5 nM and the remaining activity at up to 5 µM lay in the range of 20 to 30%.

For `C[C@@H]1C[C@@H](CCO[C@H]2CC[C@H](N3C(=S)N(c4cnc(C#N)c(C(F)(F)F)c4)C(=O)C3(C)C)CC2)C[C@H](C)N1CC(=O)Nc1ccc(C2CCC(=O)NC2=O)nc1` (stereo partly drawn) [Cmpd 19, 2-((2R,4s,6S)-4-(2-(((trans)-4-(3-(6-Cyano-5-(trifluoromethyl)pyridin-3-yl)-5,5-dimethyl-4-oxo-2-thioxoimidazolidin-1-yl)cyclohexyl)oxy)ethyl)-2,6-dimethylpiperidin-1-yl)-N-(6-(2,6-dioxopiperidin-3-yl)pyridin-3-yl)acetamide], the DC50 was at most 5 nM and the remaining activity at up to 5 µM lay in the range of 20 to 30%.

On to `CC1(C)C(=O)N(c2cnc(C#N)c(C(F)(F)F)c2)C(=S)N1[C@H]1CC[C@H](OCCCN2CCN(CC(=O)Nc3ccc(C4CCC(=O)NC4=O)nc3)[C@@H](C(F)(F)F)C2)CC1` (stereo partly drawn) [Cmpd 23, 2-((R)-4-(3-(((trans)-4-(3-(6-Cyano-5-(trifluoromethyl)pyridin-3-yl)-5,5-dimethyl-4-oxo-2-thioxoimidazolidin-1-yl)cyclohexyl)oxy)propyl)-2-(trifluoromethyl)piperazin-1-yl)-N-(6-(2,6-dioxopiperidin-3-yl)pyridin-3-yl)acetamide], for which the DC50 is at most 5 nM and the remaining activity at up to 5 µM fell in the range of 0 to 20%.

Turning to `C[C@@H]1CN(CCO[C@H]2CC[C@H](N3C(=S)N(c4ccc(C#N)c(C(F)(F)F)c4)C(=O)C3(C)C)CC2)C[C@H](C)N1CC(=O)Nc1ccc(C2CCC(=O)NC2=O)nc1` (stereo partly drawn) [Cmpd 2, 2-((2R,6S)-4-(2-((trans-4-(3-(4-Cyano-3-(trifluoromethyl)phenyl)-5,5-dimethyl-4-oxo-2-thioxoimidazolidin-1-yl)cyclohexyl)oxy)ethyl)-2,6-dimethylpiperazin-1-yl)-N-(6-(2,6-dioxopiperidin-3-yl)pyridin-3-yl)acetamide hydrochloride], the DC50 lay in the range of 5 to 10 nM and the remaining activity at up to 5 µM is 30 to 70%.

Consider `C[C@@H]1CN(CCCO[C@H]2CC[C@H](N3C(=S)N(c4cnc(C#N)c(C(F)(F)F)c4)C(=O)C3(C)C)CC2)C[C@H](C)N1CC(=O)Nc1ccc(C2CCC(=O)NC2=O)nc1` (stereo partly drawn) [Cmpd 4, 2-((2R,6S)-4-(3-((trans-4-(3-(6-Cyano-5-(trifluoromethyl)pyridin-3-yl)-5,5-dimethyl-4-oxo-2-thioxoimidazolidin-1-yl)cyclohexyl)oxy)propyl)-2,6-dimethylpiperazin-1-yl)-N-(6-(2,6-dioxopiperidin-3-yl)pyridin-3-yl)acetamide hydrochloride], for which the DC50 was at most 5 nM and the remaining activity at up to 5 µM was in the range of 20 to 30%.

As to `C[C@@H]1CN(CCC[C@H]2CC[C@H](N3C(=S)N(c4ccc(C#N)c(Cl)c4)C(=O)C3(C)C)CC2)C[C@H](C)N1CC(=O)Nc1ccc(C2CCC(=O)NC2=O)nc1` (stereo partly drawn) [Cmpd 10, 2-((2R,6S)-4-(3-(trans-4-(3-(3-Chloro-4-cyanophenyl)-5,5-dimethyl-4-oxo-2-thioxoimidazolidin-1-yl)cyclohexyl)propyl)-2,6-dimethylpiperazin-1-yl)-N-(6-(2,6-dioxopiperidin-3-yl)pyridin-3-yl)acetamide hydrochloride], the DC50 was in the range of 10 to 100 nM and the remaining activity at up to 5 µM lay within 30 to 70%.

Take `C[C@@H]1CN(CCO[C@H]2CC[C@H](N3C(=S)N(c4ccc(C#N)c(C(F)(F)F)c4)C(=O)C3(C)C)CC2)C[C@H](C)N1CCC(=O)Nc1ccc(N2CCC(=O)NC2=O)nc1` [Cmpd 9, 3-((2R,6S)-4-(2-((trans-4-(3-(4-Cyano-3-(trifluoromethyl)phenyl)-5,5-dimethyl-4-oxo-2-thioxoimidazolidin-1-yl)cyclohexyl)oxy)ethyl)-2,6-dimethylpiperazin-1-yl)-N-(6-(2,4-dioxotetrahydropyrimidin-1(2H)-yl)pyridin-3-yl)propanamide]: the DC50 fell in the range of 10 to 100 nM and the remaining activity at up to 5 µM lay in the range of 30 to 70%.

As to `C[C@@H]1C[C@H](OCCC[C@H]2CC[C@H](N3C(=S)N(c4ccc(C#N)c(C(F)(F)F)c4)C(=O)C3(C)C)CC2)C[C@H](C)N1CC(=O)Nc1ccc(C2CCC(=O)NC2=O)nc1` (stereo partly drawn) [Cmpd 20, 2-((2R,4r,6S)-4-(3-((trans)-4-(3-(4-Cyano-3-(trifluoromethyl)phenyl)-5,5-dimethyl-4-oxo-2-thioxoimidazolidin-1-yl)cyclohexyl)propoxy)-2,6-dimethylpiperidin-1-yl)-N-(6-(2,6-dioxopiperidin-3-yl)pyridin-3-yl)acetamide], the DC50 lay within 5 to 10 nM and the remaining activity at up to 5 µM is 20 to 30%.

For `C[C@@H]1CN(CCCO[C@H]2CC[C@H](N3C(=S)N(c4ccc(C#N)c(C(F)(F)F)c4)C(=O)C3(C)C)CC2)C[C@H](C)N1CC(=O)Nc1ccc(N2CCC(=O)NC2=O)nc1` [Cmpd 12, 2-((2R,6S)-4-(3-((trans-4-(3-(4-Cyano-3-(trifluoromethyl)phenyl)-5,5-dimethyl-4-oxo-2-thioxoimidazolidin-1-yl)cyclohexyl)oxy)propyl)-2,6-dimethylpiperazin-1-yl)-N-(6-(2,4-dioxotetrahydropyrimidin-1(2H)-yl)pyridin-3-yl)acetamide hydrochloride], the DC50 was in the range of 100 to 10000 nM and the remaining activity at up to 5 µM is 30 to 70%.

Take `C[C@@H]1CN(CCO[C@H]2CC[C@H](N3C(=S)N(c4ccc(C#N)c(C(F)(F)F)c4)C(=O)C3(C)C)CC2)C[C@H](C)N1CC(=O)Nc1ccc(N2CCC(=O)NC2=O)nc1` [Cmpd 1, 2-((2R,6S)-4-(2-((trans-4-(3-(4-Cyano-3-(trifluoromethyl)phenyl)-5,5-dimethyl-4-oxo-2-thioxoimidazolidin-1-yl)cyclohexyl)oxy)ethyl)-2,6-dimethylpiperazin-1-yl)-N-(6-(2,4-dioxotetrahydropyrimidin-1(2H)-yl)pyridin-3-yl)acetamide]: the DC50 lay in the range of 100 to 10000 nM and the remaining activity at up to 5 µM lay within 30 to 70%.

With `CC1(C)C(=O)N(c2cnc(C#N)c(C(F)(F)F)c2)C(=S)N1[C@H]1CC[C@H](CCCN2CCN(CC(=O)Nc3ccc(C4CCC(=O)NC4=O)nc3)[C@@H](C(F)(F)F)C2)CC1` (stereo partly drawn) [Cmpd 21, 2-((R)-4-(3-((trans)-4-(3-(6-Cyano-5-(trifluoromethyl)pyridin-3-yl)-5,5-dimethyl-4-oxo-2-thioxoimidazolidin-1-yl)cyclohexyl)propyl)-2-(trifluoromethyl)piperazin-1-yl)-N-(6-(2,6-dioxopiperidin-3-yl)pyridin-3-yl)acetamide], the DC50 is at most 5 nM and the remaining activity at up to 5 µM fell in the range of 0 to 20%.

The values above are taken from patent US20240374591A1, “CEREBLON BINDING COMPOUNDS, COMPOSITIONS THEREOF, AND METHODS OF TREATMENT THEREWITH” (CELGENE CORPORATION, priority 2021, published 2024).
